In patent US20260062387A1, “SALT-INDUCIBLE KINASE INHIBITOR COMPOUND AND PHARMACEUTICAL COMPOSITION INCLUDING THE SAME” (MITSUBISHI TANABE PHARMA CORPORATION, priority 2023, published 2026) one finds IC50 data, which are given here for 22 compounds.

What all share (type): biochemical
One test deals with GST-tagged SIK1 (Homo sapiens (Human), UniProt P57059). In words: SIK1 inhibition test (ADP-Glo Max Assay). The note with it: enzyme 20 nM, AMARA Peptide 200 μM, ATP 1 mM, 2 hours room temperature. The method, boiled down:
(§1)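 ADP formed was detected by luciferase luminescence after a 2 h room-temperature reaction with 1 mM ATP, 5 mM MgCl2 and AMARA peptide at 200 μM (SIK1, SIK2) or 100 μM (SIK3). Final GST-enzyme levels were 20 nM SIK1, 3 nM SIK2 and 100 nM SIK3. IC50 came from 16-point concentration-response data.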
Background: In ADP-Glo the light output rises with the ADP produced.

The target in a further test is GST-tagged SIK2 (Homo sapiens (Human), UniProt Q9H0K1). In words: SIK2 inhibition test (ADP-Glo Max Assay). The note with it: enzyme 3 nM, AMARA Peptide 200 μM, ATP 1 mM, 2 hours room temperature. In outline: as §1
Another test deals with GST-tagged SIK3 (Homo sapiens (Human), UniProt Q9Y2K2). In words: SIK3 inhibition test (ADP-Glo Max Assay). Conditions: enzyme 100 nM, AMARA Peptide 100 μM, ATP 1 mM, 2 hours room temperature. The method, boiled down:
as §1

Chain of GST-tagged SIK2 (Q9H0K1 whole entry): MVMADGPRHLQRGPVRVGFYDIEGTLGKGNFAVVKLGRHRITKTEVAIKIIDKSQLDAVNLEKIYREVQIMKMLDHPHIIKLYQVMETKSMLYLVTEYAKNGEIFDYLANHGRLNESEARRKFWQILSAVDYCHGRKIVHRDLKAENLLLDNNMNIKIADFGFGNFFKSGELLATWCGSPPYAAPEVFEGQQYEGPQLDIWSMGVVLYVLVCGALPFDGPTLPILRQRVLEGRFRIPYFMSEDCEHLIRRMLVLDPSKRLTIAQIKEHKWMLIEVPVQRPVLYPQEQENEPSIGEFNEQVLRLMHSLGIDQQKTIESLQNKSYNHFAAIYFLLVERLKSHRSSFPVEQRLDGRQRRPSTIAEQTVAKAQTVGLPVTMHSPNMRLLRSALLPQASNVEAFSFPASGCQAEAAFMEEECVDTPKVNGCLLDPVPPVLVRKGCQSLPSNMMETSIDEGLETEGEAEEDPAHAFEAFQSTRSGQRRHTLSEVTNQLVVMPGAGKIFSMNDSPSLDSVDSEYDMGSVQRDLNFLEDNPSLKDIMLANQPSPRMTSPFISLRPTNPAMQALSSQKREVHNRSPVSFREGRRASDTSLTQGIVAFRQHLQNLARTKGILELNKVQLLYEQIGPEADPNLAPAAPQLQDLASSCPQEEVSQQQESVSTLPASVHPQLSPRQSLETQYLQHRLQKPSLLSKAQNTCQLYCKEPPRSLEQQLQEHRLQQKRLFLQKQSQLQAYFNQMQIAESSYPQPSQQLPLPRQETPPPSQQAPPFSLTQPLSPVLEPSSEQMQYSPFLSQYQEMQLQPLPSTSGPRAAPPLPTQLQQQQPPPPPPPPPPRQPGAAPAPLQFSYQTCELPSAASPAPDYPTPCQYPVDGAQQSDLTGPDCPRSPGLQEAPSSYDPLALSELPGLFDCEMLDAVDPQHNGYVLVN
Chain of GST-tagged SIK1 (P57059 whole entry): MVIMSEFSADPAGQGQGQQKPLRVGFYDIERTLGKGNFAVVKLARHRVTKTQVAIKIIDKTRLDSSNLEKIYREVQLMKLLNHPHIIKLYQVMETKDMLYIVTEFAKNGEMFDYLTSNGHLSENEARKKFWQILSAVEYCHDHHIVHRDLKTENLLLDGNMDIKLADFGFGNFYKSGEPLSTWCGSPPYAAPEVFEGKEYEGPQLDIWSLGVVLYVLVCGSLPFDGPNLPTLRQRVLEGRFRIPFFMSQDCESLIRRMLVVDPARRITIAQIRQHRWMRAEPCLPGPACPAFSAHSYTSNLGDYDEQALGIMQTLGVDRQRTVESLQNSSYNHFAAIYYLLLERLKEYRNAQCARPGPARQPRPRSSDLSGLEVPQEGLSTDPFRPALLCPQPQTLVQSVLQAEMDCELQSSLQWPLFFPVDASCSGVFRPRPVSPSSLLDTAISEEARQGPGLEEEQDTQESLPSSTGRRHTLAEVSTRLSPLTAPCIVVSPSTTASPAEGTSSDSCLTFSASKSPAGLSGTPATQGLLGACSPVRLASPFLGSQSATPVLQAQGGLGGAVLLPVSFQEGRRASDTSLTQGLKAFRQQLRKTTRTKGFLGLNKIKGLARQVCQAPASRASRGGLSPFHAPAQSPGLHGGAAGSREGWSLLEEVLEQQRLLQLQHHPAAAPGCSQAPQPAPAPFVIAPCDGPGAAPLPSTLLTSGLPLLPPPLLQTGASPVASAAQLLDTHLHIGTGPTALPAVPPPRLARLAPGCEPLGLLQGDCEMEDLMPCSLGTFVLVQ
Chain of GST-tagged SIK3 (Q9Y2K2 whole entry): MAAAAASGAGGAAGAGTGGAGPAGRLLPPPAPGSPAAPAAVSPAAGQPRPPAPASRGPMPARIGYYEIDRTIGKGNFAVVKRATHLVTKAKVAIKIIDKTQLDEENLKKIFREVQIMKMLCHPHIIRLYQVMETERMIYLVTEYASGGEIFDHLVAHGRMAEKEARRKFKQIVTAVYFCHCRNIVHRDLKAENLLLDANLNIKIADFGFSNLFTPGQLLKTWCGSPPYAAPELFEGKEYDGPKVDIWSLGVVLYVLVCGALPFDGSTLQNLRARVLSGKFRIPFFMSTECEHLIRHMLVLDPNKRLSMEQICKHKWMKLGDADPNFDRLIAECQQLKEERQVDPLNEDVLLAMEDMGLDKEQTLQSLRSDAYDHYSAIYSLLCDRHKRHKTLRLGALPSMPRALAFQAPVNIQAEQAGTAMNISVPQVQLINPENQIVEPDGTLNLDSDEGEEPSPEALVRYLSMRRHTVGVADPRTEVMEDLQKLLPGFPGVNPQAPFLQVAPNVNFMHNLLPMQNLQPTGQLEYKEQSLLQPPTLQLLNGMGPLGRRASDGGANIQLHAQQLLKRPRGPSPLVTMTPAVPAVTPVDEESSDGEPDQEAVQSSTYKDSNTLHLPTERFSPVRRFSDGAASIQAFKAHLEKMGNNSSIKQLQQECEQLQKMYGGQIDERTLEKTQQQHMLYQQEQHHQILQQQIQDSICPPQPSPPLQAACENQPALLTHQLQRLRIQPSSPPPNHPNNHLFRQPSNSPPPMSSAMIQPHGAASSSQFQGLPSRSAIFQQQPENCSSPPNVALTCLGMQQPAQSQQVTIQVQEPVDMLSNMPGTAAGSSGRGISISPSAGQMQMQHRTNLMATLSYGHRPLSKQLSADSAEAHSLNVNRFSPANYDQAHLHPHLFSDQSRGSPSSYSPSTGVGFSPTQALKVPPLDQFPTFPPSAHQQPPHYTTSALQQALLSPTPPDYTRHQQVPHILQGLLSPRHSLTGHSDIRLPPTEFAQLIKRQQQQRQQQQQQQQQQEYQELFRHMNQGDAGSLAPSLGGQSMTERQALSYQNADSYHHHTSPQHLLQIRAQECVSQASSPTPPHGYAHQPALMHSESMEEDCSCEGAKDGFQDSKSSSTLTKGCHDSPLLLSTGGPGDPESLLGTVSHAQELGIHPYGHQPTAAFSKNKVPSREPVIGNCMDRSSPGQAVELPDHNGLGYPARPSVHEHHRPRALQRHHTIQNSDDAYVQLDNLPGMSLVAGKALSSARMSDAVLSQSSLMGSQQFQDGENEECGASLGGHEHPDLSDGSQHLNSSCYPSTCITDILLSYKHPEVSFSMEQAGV

The IC50 is the concentration at which inhibition is half-maximal. Low readings indicate greater potency, high ones weaker potency. `COc1cc(-c2c3c(OC(F)F)cc(-c4cnn(C)c4)cc3nn2C)cc(OC(F)F)c1C(N)=O` [Example 131, 2-(difluoromethoxy)-4-[4-(difluoromethoxy)-2-methyl-6-(1-methylpyrazol-4-yl)indazol-3-yl]-6-methoxybenzamide]: the figures for the IC50 against GST-tagged SIK1, against GST-tagged SIK2 and against GST-tagged SIK3 were 12.2 nM, 4.5 nM and 16.3 nM, respectively.
Turning to `COc1cc(-c2c3c(OCC4CC4)cc(-c4cnn(C)c4)cc3nn2C)cc(OC(F)F)c1C(=O)N1CC(O)(C(F)(F)F)C1` [Example 29, [4-[4-(cyclopropylmethoxy)-2-methyl-6-(1-methylpyrazol-4-yl)indazol-3-yl]-2-(difluoromethoxy)-6-methoxyphenyl]-[3-hydroxy-3-(trifluoromethyl)azetidin-1-yl]methanone], the IC50 at GST-tagged SIK1 was 8.6 nM; against GST-tagged SIK2 it was 10.3 nM; on GST-tagged SIK3 it was 13.2 nM.
For the compound `COc1cc(-c2c3c(OCc4ccccc4)cc(-c4cnn(C)c4)cc3nn2C)cc(OC(F)F)c1C(=O)N[C@@H]1C[C@@H]1F` [Example 6, 2-(difluoromethoxy)-N-[(1R,2S)-2-fluorocyclopropyl]-6-methoxy-4-[2-methyl-6-(1-methylpyrazol-4-yl)-4-phenylmethoxyindazol-3-yl]benzamide], the results for the IC50 at GST-tagged SIK1, at GST-tagged SIK2 and on GST-tagged SIK3 were 2.8 nM, 7.1 nM and 8.4 nM, respectively.
Take `COc1cc(-c2c3c(OC(F)F)cc(-c4cnn(C)c4)cc3nn2C)cc(OC(F)F)c1C(=O)N[C@@H]1C[C@@H]1F` [Example 5, 2-(difluoromethoxy)-4-[4-(difluoromethoxy)-2-methyl-6-(1-methylpyrazol-4-yl)indazol-3-yl]-N-[(1R,2S)-2-fluorocyclopropyl]-6-methoxybenzamide]: the IC50 is 10.8 nM on GST-tagged SIK1, 5 nM at GST-tagged SIK2 and 7.6 nM against GST-tagged SIK3.
As to `COCCCn1cc(-c2cc(C#N)c3c(-c4cc(OC)c5c(c4)C(C)(C)CNC5=O)n(C)nc3c2)cn1` [Example 151, 3-(8-methoxy-4,4-dimethyl-1-oxo-2,3-dihydroisoquinolin-6-yl)-6-[1-(3-methoxypropyl)pyrazol-4-yl]-2-methylindazole-4-carbonitrile], the values for the IC50 against GST-tagged SIK1, at GST-tagged SIK2 and against GST-tagged SIK3 were 9.8 nM, 3.5 nM and 14.2 nM, respectively.
For `COc1cc(-c2c3c(C#N)cc(-c4cnn(C(C)(C)C)c4)cc3nn2C)cc(OC(F)F)c1C(=O)N[C@@H]1C[C@@H]1F` [Example 20, 4-[6-(1-tert-butylpyrazol-4-yl)-4-cyano-2-methylindazol-3-yl]-2-(difluoromethoxy)-N-[(1R,2S)-2-fluorocyclopropyl]-6-methoxybenzamide], the half-maximal inhibitory concentration (IC50) was determined as 4.4 nM at GST-tagged SIK1, 5.8 nM against GST-tagged SIK2 and 13.7 nM against GST-tagged SIK3.
As for `COCCn1cc(-c2cc(C#N)c3c(-c4cc(OC)c5c(c4)C(C)(C)CNC5=O)n(C)nc3c2)cn1` [Example 143, 3-(8-methoxy-4,4-dimethyl-1-oxo-2,3-dihydroisoquinolin-6-yl)-6-[1-(2-methoxyethyl)pyrazol-4-yl]-2-methylindazole-4-carbonitrile], the half-maximal inhibitory concentration (IC50) at GST-tagged SIK1 stood at 10.5 nM; against GST-tagged SIK2, 2.2 nM; on GST-tagged SIK3, 8.6 nM.
On to `COc1cc(-c2c3c(C#N)cc(-c4cnn(C(C)C)c4)cc3nn2C)cc(OC(F)F)c1C(=O)N[C@@H]1C[C@@H]1F` [Example 33, 4-[4-cyano-2-methyl-6-(1-propan-2-ylpyrazol-4-yl)indazol-3-yl]-2-(difluoromethoxy)-N-[(1R,2S)-2-fluorocyclopropyl]-6-methoxybenzamide], for which the values for the concentration for half-maximal inhibition (IC50) against GST-tagged SIK1, against GST-tagged SIK2 and on GST-tagged SIK3 were 4.6 nM, 2.6 nM and 8.5 nM, respectively.
As for `COc1cc(-c2c3c(OCc4nnc(C)o4)cc(-c4cnn(C)c4)cc3nn2C)cc(OC(F)F)c1C(=O)N1CC(O)(C(F)(F)F)C1` [Example 53, [2-(difluoromethoxy)-6-methoxy-4-[2-methyl-4-[(5-methyl-1,3,4-oxadiazol-2-yl)methoxy]-6-(1-methylpyrazol-4-yl)indazol-3-yl]phenyl]-[3-hydroxy-3-(trifluoromethyl)azetidin-1-yl]methanone], the half-maximal inhibitory concentration (IC50) at GST-tagged SIK1 worked out at 9.1 nM; at GST-tagged SIK2, 7.3 nM; against GST-tagged SIK3, 13.6 nM.
Regarding `CCn1cc(-c2cc(C#N)c3c(-c4cc(OC)c(C(=O)N[C@@H]5C[C@@H]5F)c(OC(F)F)c4)n(C)nc3c2)cn1` [Example 18, 4-[4-cyano-6-(1-ethylpyrazol-4-yl)-2-methylindazol-3-yl]-2-(difluoromethoxy)-N-[(1R,2S)-2-fluorocyclopropyl]-6-methoxybenzamide], the values for the 50% inhibitory concentration (IC50) at GST-tagged SIK1, against GST-tagged SIK2 and against GST-tagged SIK3 were 1.4 nM, 3.1 nM and 7 nM, respectively.
Regarding `CCn1cc(-c2cc(C#N)c3c(-c4cc(OC)c5c(c4)[C@@H](C)CNC5=O)n(C)nc3c2)cn1` (single isomer, unassigned) [Example 105], the 50% inhibitory concentration (IC50) against GST-tagged SIK1 is 10 nM; against GST-tagged SIK2, 3.4 nM; at GST-tagged SIK3, 8.1 nM.
In the case of `COc1cc(-c2c3c(C#N)cc(-c4cnn(C[C@H](C)O)c4)cc3nn2C)cc(OC(F)F)c1C(=O)NC[C@@H]1CC1(F)F` (single isomer, unassigned) [Example 95, 4-[4-cyano-6-[1-[(2S)-2-hydroxypropyl]pyrazol-4-yl]-2-methylindazol-3-yl]-N-[[(1R*)-2,2-difluorocyclopropyl]methyl]-2-(difluoromethoxy)-6-methoxybenzamide], the values for the IC50 at GST-tagged SIK1, against GST-tagged SIK2 and at GST-tagged SIK3 were 16 nM, 13.3 nM and 5.7 nM, respectively.
`COc1cc(-c2c3c(OC(F)F)cc(-c4cn(C)nn4)cc3nn2C)cc(OC(F)F)c1C(=O)N1CC(O)(C(F)F)C1` [Example 63, [2-(difluoromethoxy)-4-[4-(difluoromethoxy)-2-methyl-6-(1-methyltriazol-4-yl)indazol-3-yl]-6-methoxyphenyl]-[3-(difluoromethyl)-3-hydroxyazetidin-1-yl]methanone]: the IC50 against GST-tagged SIK1 was found to be 7.5 nM; against GST-tagged SIK2 it was 4.3 nM; at GST-tagged SIK3, 9.7 nM.
The corresponding values for `CCCn1cc(-c2cc(C#N)c3c(-c4cc(OC)c5c(c4)C(C)(C)CNC5=O)n(C)nc3c2)cn1` [Example 140, 3-(8-methoxy-4,4-dimethyl-1-oxo-2,3-dihydroisoquinolin-6-yl)-2-methyl-6-(1-propylpyrazol-4-yl)indazol-4-carbonitrile] are 7.8 nM, 12.3 nM and 10.3 nM.
The corresponding values for `COc1cc(-c2c3c(C#N)cc(-c4cnn(CC(C)C)c4)cc3nn2C)cc(OC(F)F)c1C(N)=O` [Example 135, 4-[4-cyano-2-methyl-6-[1-(2-methylpropyl)pyrazol-4-yl]indazol-3-yl]-2-(difluoromethoxy)-6-methoxybenzamide] are 17.2 nM, 6.2 nM and 5.9 nM.
In the case of `COc1cc(-c2c3c(C#N)cc(-c4cnn(CC(=O)N(C)C)c4)cc3nn2C)cc(OC(F)F)c1C(=O)NCC1(F)CC1` [Example 98, 4-[4-cyano-6-[1-[2-(dimethylamino)-2-oxoethyl]pyrazol-4-yl]-2-methylindazol-3-yl]-2-(difluoromethoxy)-N-[(1-fluorocyclopropyl)methyl]-6-methoxybenzamide], the IC50 came out at 17.9 nM against GST-tagged SIK1, 10.5 nM against GST-tagged SIK2 and 10.3 nM on GST-tagged SIK3.
On to `COc1cc(-c2c3c(C#N)cc(-c4cnn(C)c4)cc3nn2C)cc(OC(F)F)c1C(=O)NC[C@@H]1CC1(F)F` (single isomer, unassigned) [Example 46], for which the IC50 against GST-tagged SIK1 was determined as 14.7 nM; against GST-tagged SIK2, 5.3 nM; against GST-tagged SIK3, 7.2 nM.
On to `CCCCn1cc(-c2cc(C#N)c3c(-c4cc(OC)c5c(c4)[C@@H](C)CNC5=O)n(C)nc3c2)cn1` (single isomer, unassigned) [Example 168], for which the 50% inhibitory concentration (IC50) is 6.8 nM against GST-tagged SIK1, 1.4 nM on GST-tagged SIK2 and 2.7 nM against GST-tagged SIK3.
`COc1cc(-c2c3c(OCc4ccnnc4)cc(-c4cnn(C)c4)cc3nn2C)cc(OC(F)F)c1C(=O)N1CC(O)(C(F)(F)F)C1` [Example 51, [2-(difluoromethoxy)-6-methoxy-4-[2-methyl-6-(1-methylpyrazol-4-yl)-4-(pyridazin-4-ylmethoxy)indazol-3-yl]phenyl]-[3-hydroxy-3-(trifluoromethyl)azetidin-1-yl]methanone]: the IC50 against GST-tagged SIK1 amounted to 8.6 nM; on GST-tagged SIK2, 8.9 nM; on GST-tagged SIK3 it was 14.1 nM.
Regarding `CC1CNC(=O)c2c(OC(F)F)cc(-c3c4c(C#N)cc(-c5cnn(C)c5)cc4nn3C)cc21` (stereo not drawn) [Example 160, 3-[8-(difluoromethoxy)-4-methyl-1-oxo-3,4-dihydro-2H-isoquinolin-6-yl]-2-methyl-6-(1-methylpyrazol-4-yl)indazol-4-carbonitrile], the IC50 against GST-tagged SIK1 was found to be 7.5 nM; against GST-tagged SIK2 it was 1 nM; on GST-tagged SIK3, 3 nM.
Consider `COc1cc(-c2c3c(C#N)cc(-c4cnn(CCC(C)C)c4)cc3nn2C)cc2c1C(=O)NC[C@@H]2C` (single isomer, unassigned) [Example 171], for which the 50% inhibitory concentration (IC50) was determined as 9.1 nM against GST-tagged SIK1, 2.3 nM against GST-tagged SIK2 and 4.7 nM against GST-tagged SIK3.
The like results for `COc1cc(-c2c3c(C#N)cc(-c4cnn(CC(F)F)c4)cc3nn2C)cc(OC(F)F)c1C(N)=O` [Example 102, 4-[4-cyano-6-[1-(2,2-difluoroethyl)pyrazol-4-yl]-2-methylindazol-3-yl]-2-(difluoromethoxy)-6-methoxybenzamide] were, in that order, 19.2 nM, 5.3 nM and 5.1 nM.
